Source: US10246453B2, “Benzenesulfonamide compounds and their use as therapeutic agents” (Xenon Pharmaceuticals Inc., priority 2016, dated 2019)
pIC50: −log10 of the molar value. Where a name gives a salt, the structure may show the parent alone.

Key:
[1] = target: T1, NaV1.1 (Homo sapiens (Human), UniProt P35498); assay: Electrophysiological Assay (EP), patch voltage clamp, NaV1.1; assay type: cell-based; conditions: HEK-293 cells, whole-cell patch clamp, inactivated state; arithmetic mean
Procedure: (§1) Sodium currents were measured using the patch clamp technique in the whole-cell configuration using either a PatchXpress automated voltage clamp or manually using an Axopatch 200B (Axon Instruments) or Model 2400 (A-M systems) amplifier.
In some studies, the external sodium was reduced by equimolar replacement with choline. […] All recordings were performed at ambient temperature in a bath chamber with a volume of 150 μL. Control sodium currents were measured in 0.5% DMSO. Controls and representative compounds of the invention were applied to the recording chamber through a 4-pinch or 8-pinch valve bath perfusion system manufactured by ALA Scientific Instruments.
Series resistance compensation was applied (60-80%). […] All statistics in this study are given as mean±SD.
The membrane potential was maintained at a voltage where inactivation of the channel is complete. The voltage is then stepped back to a very negative (Vhold=−150 mV) voltage for 20 ms and then a test pulse is applied to quantify the compound block. […] The percent decrease in sodium current following wash-on of compound was taken as the percent block of sodium channels.

[2] = target: T1, NaV1.1; assay: Sodium Influx Assay (Flux), NaV1.1; assay type: cell-based; conditions: Trex HEK293 cells, ANG2 dye; arithmetic mean
[3] = target: T2, NaV1.6 (Homo sapiens (Human), UniProt Q9UQD0); assay: Electrophysiological Assay (EP), patch voltage clamp, NaV1.6; assay type: cell-based; conditions: HEK-293 cells, whole-cell patch clamp, inactivated state; arithmetic mean
T2 sequence (Q9UQD0 whole entry): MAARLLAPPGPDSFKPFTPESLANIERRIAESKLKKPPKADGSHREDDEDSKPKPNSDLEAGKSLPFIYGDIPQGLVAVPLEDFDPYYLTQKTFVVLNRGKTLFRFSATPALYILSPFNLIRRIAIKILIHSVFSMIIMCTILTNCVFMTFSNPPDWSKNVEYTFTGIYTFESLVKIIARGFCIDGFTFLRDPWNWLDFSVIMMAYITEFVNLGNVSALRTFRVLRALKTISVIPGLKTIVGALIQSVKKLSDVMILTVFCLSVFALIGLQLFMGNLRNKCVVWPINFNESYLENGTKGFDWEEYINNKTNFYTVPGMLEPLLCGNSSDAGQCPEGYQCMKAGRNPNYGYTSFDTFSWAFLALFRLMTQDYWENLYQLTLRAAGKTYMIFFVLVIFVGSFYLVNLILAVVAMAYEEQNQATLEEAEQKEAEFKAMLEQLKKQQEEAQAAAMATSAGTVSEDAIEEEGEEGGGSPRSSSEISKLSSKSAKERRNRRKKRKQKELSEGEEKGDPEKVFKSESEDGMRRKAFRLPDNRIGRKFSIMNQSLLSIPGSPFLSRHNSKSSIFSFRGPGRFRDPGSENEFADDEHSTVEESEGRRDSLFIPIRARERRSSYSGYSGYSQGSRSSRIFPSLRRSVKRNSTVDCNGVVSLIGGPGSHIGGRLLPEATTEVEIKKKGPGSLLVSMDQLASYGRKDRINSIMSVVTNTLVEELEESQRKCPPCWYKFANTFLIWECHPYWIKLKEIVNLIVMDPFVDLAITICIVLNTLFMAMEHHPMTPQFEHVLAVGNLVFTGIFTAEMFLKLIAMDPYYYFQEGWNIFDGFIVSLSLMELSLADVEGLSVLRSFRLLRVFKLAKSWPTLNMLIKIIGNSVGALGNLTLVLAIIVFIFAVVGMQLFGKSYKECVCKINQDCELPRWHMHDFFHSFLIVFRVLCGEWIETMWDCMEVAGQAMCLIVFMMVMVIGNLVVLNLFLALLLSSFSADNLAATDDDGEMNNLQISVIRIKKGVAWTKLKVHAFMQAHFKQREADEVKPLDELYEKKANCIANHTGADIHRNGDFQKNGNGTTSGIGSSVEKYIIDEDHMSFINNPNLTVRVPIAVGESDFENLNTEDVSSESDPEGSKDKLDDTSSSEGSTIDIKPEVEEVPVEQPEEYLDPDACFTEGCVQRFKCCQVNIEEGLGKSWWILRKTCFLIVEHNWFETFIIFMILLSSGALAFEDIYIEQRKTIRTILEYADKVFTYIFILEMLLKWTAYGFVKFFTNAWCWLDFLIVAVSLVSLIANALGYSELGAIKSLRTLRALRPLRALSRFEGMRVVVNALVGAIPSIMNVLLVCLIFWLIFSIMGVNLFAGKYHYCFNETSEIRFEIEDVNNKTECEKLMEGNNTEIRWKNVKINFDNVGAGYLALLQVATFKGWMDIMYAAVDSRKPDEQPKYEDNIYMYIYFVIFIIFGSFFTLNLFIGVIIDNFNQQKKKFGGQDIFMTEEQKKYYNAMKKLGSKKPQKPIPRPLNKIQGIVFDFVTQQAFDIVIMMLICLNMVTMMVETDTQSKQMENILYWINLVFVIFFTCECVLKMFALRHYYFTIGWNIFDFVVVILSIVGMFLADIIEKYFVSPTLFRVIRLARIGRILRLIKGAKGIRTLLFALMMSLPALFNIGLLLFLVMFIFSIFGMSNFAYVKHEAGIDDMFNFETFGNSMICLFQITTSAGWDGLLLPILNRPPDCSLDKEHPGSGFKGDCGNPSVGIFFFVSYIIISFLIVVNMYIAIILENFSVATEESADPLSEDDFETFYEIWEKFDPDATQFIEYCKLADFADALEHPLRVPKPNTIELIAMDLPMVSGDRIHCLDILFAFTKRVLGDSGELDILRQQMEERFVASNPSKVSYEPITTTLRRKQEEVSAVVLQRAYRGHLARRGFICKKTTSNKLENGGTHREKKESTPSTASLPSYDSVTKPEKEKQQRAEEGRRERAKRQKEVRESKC
Source text: Patch voltage clamp electrophysiology allows for the direct measurement and quantification of block of voltage-gated sodium channels (Nay's), and allows the determination of the time-and voltage-dependence of block which has been interpreted as differential binding to the resting, open, and inactivated states of the sodium channel (Hille, B., Journal of General Physiology (1977), 69: 497-515).
NaV1.1, NaV1.5 and NaV1.6 cDNAs (NM_001165964 (SCN1A), NM_000335 (SCN5A) and NM_014191 (SCN8A), respectively) were stably expressed in HEK-293 cells.
as §1
The manual voltage clamp protocol was as follows: Borosilicate glass micropipettes were fire-polished to a tip diameter yielding a resistance of 2-4 Mohms in the working solutions. […] In some studies, the external sodium was reduced by equimolar replacement with choline. Osmolarity in the CsF internal and NaCl external solutions was adjusted to 300 mOsm/kg and 310 mOsm/kg with glucose, respectively. All recordings were performed at ambient temperature in a bath chamber with a volume of 150 μL. Control sodium currents were measured in 0.5% DMSO. Controls and representative compounds of the invention were applied to the recording chamber through a 4-pinch or 8-pinch valve bath perfusion system manufactured by ALA Scientific Instruments.
Currents were recorded at 40 kHz sampling frequency, filtered at […], and stored using a Digidata-1322A analogue/digital interface with the pClamp software (Axon Instruments). Series resistance compensation was applied (60-80%). […] All statistics in this study are given as mean±SD.
The membrane potential was maintained at a voltage where inactivation of the channel is complete. The voltage is then stepped back to a very negative (Vhold=−150 mV) voltage for 20 ms and then a test pulse is applied to quantify the compound block. The 20 ms brief repolarization was long enough for compound-free channels to completely recover from fast inactivation, but the compound-bound channels recovered more slowly such that negligible recovery could occur during this interval. The percent decrease in sodium current following wash-on of compound was taken as the percent block of sodium channels.

[4] = target: T2, NaV1.6; assay: Sodium Influx Assay (Flux), NaV1.6; conditions: read-out: Flux NaV1.6 IC50; Trex HEK293 cells, ANG2 dye; arithmetic mean
[5] = target: NaV1.5 (Homo sapiens (Human), UniProt Q14524); assay: Sodium Influx Assay (Flux), NaV1.5; conditions: read-out: Flux NaV1.5 IC50; Trex HEK293 cells, ANG2 dye; arithmetic mean
Sequence of NaV1.5 (Q14524 other isoform, or with tags, fused parts or gaps): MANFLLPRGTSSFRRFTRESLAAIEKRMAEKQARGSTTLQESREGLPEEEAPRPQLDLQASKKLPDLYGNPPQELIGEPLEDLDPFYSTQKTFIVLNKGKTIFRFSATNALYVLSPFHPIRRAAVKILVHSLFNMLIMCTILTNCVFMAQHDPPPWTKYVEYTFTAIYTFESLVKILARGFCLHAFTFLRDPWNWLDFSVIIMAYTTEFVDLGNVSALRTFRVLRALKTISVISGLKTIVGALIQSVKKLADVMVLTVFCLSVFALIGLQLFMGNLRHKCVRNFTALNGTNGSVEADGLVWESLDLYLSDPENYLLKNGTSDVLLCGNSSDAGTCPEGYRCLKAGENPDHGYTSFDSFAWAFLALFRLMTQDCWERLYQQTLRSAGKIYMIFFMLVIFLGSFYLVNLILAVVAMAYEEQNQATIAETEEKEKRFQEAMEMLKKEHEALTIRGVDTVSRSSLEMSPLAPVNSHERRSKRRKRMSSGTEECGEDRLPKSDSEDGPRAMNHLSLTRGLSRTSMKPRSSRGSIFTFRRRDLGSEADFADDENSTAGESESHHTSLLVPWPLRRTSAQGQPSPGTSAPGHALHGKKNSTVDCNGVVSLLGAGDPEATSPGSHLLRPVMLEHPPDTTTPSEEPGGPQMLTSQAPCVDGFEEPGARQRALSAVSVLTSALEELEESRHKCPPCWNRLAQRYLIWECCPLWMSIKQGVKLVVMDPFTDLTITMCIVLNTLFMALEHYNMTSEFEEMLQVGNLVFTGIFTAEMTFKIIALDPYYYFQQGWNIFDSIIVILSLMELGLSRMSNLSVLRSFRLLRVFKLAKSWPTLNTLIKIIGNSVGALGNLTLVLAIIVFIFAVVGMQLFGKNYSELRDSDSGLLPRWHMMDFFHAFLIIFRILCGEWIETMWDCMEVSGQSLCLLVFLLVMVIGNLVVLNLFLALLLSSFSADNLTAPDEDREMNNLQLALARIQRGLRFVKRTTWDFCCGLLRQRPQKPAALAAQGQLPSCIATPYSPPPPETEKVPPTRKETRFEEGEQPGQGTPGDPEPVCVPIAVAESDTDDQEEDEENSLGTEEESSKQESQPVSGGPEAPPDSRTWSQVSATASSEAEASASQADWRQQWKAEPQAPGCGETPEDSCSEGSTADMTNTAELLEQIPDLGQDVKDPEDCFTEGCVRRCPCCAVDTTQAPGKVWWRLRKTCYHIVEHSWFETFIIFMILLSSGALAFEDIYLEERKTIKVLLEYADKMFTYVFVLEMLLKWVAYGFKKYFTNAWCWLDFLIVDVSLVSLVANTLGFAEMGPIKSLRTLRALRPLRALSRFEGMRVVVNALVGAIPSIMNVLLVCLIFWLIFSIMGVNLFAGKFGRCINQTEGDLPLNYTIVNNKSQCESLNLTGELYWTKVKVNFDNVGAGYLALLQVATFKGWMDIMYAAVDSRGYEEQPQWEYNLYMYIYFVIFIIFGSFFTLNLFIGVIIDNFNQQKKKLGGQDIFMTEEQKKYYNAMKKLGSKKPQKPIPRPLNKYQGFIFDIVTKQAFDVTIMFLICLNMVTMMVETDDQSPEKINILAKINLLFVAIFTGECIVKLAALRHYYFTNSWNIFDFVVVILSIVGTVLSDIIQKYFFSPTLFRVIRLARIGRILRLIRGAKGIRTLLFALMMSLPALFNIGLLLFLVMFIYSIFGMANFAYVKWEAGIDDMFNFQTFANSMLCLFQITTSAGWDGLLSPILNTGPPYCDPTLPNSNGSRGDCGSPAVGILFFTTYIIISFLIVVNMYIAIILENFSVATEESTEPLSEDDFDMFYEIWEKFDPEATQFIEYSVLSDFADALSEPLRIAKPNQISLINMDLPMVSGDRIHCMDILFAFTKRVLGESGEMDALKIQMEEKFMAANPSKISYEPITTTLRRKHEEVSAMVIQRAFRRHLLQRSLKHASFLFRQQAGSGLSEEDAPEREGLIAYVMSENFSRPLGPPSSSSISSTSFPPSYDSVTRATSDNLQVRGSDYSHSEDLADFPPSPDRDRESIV

SMILES: C[C@H]1CN(Cc2ccccc2)C[C@@H]1Nc1ccc(S(=O)(=O)Nc2nccs2)cc1Cl (relative stereo) [Example 74, 4-((trans-1-benzyl-4-methylpyrrolidin-3-yl)amino)-3-chloro-N-(thiazol-2-yl)benzenesulfonamide]
- pIC50 [1]: 5.99
- pIC50 [2]: 5.81
- pIC50 [3]: 7.60
- pIC50 [4]: 6.78
- pIC50 [5]: 5.06

SMILES: O=S(=O)(Nc1nccs1)c1ccc(OC2CCN(Cc3cccc(C(F)F)c3)CC2)c(Cl)c1 [Example 11, 3-chloro-4-((1-(3-(difluoromethyl)benzyl)piperidin-4-yl)oxy)-N-(thiazol-2-yl)benzenesulfonamide]
- pIC50 [1]: 5.14
- pIC50 [2]: 5.09
- pIC50 [3]: 7.09
- pIC50 [4]: 6.60
- pIC50 [5]: 5.12

SMILES: O=S(=O)(Nc1nccs1)c1ccc(O[C@@H]2C[C@H]3CC[C@@H](C2)N3Cc2ccccc2)c(Cl)c1 [Example 16, 4-(((1R,3s,5S)-8-benzyl-8-azabicyclo[3.2.1]octan-3-yl)oxy)-3-chloro-N-(thiazol-2-yl)benzenesulfonamide]
- pIC50 [1]: < 5.00
- pIC50 [2]: 4.64
- pIC50 [3]: 7.52
- pIC50 [4]: 6.37
- pIC50 [5]: < 4.52

SMILES: CC1(Nc2ccc(S(=O)(=O)Nc3nccs3)cc2Cl)CN(Cc2ccccc2)C1 [Example 25, 4-((1-benzyl-3-methylazetidin-3-yl)amino)-3-chloro-N-(thiazol-2-yl)benzenesulfonamide 2,2,2-trifluoroacetate]
- pIC50 [1]: < 5.00
- pIC50 [2]: 5.24
- pIC50 [3]: 6.86
- pIC50 [4]: 6.24
- pIC50 [5]: 4.61

SMILES: CN(c1ccc(S(=O)(=O)Nc2nccs2)cc1Cl)[C@H]1CCN(Cc2cccc(Cl)c2)C1 [Example 27, (S)-3-chloro-4-((1-(3-chlorobenzyl)pyrrolidin-3-yl)(methyl)amino)-N-(thiazol-2-yl)benzenesulfonamide]
- pIC50 [1]: 5.47
- pIC50 [2]: 5.43
- pIC50 [3]: 7.15
- pIC50 [4]: 6.36
- pIC50 [5]: 5.16

SMILES: CN(c1ccc(S(=O)(=O)Nc2nccs2)cc1Cl)[C@H]1CCN(Cc2cccc(C(F)F)c2)C1 [Example 28, (S)-3-chloro-4-((1-(3-(difluoromethyl)benzyl)pyrrolidin-3-yl)(methyl)amino)-N-(thiazol-2-yl)benzenesulfonamide]
- pIC50 [1]: 5.38
- pIC50 [2]: 5.49
- pIC50 [3]: 7.44
- pIC50 [4]: 6.66
- pIC50 [5]: 5.24

SMILES: CN(c1ccc(S(=O)(=O)Nc2ncns2)cc1Cl)[C@H]1CCN(Cc2cc(Cl)ccc2F)C1 [Example 33, (S)-3-chloro-4-((1-(5-chloro-2-fluorobenzyl)pyrrolidin-3-yl)(methyl)amino)-N-(1,2,4-thiadiazol-5-yl)benzenesulfonamide 2,2,2-trifluoroacetate]
- pIC50 [1]: < 5.00
- pIC50 [2]: 5.29
- pIC50 [3]: 7.15
- pIC50 [4]: 7.39
- pIC50 [5]: 5.11

SMILES: CCN(c1ccc(S(=O)(=O)Nc2ncns2)cc1Cl)[C@H]1CCN(Cc2ccccc2)C1 [Example 36, (S)-4-((1-benzylpyrrolidin-3-yl)(ethyl)amino)-3-chloro-N-(1,2,4-thiadiazol-5-yl)benzenesulfonamide]
- pIC50 [1]: < 5.00
- pIC50 [2]: < 4.52
- pIC50 [3]: 6.16
- pIC50 [4]: 6.21
- pIC50 [5]: < 4.52

SMILES: CN(c1cc(F)c(S(=O)(=O)Nc2cccc(F)n2)cc1Cl)[C@H]1CCN(Cc2ccccc2)C1 [Example 40, (S)-4-((1-benzylpyrrolidin-3-yl)(methyl)amino)-5-chloro-2-fluoro-N-(6-fluoropyridin-2-yl)benzenesulfonamide bis(trifluoroacetic acid) salt]
- pIC50 [1]: < 5.00
- pIC50 [2]: 5.17
- pIC50 [3]: 5.41
- pIC50 [4]: 5.49
- pIC50 [5]: 4.80

SMILES: CN(c1ccc(S(=O)(=O)Nc2cscn2)cc1Cl)[C@H]1CCN(Cc2ccccc2)C1 [Example 41, (S)-4-((1-benzylpyrrolidin-3-yl)(methyl)amino)-3-chloro-N-(thiazol-4-yl)benzenesulfonamide 2,2,2-trifluoroacetate]
- pIC50 [1]: < 5.00
- pIC50 [2]: 5.18
- pIC50 [3]: 6.13
- pIC50 [4]: 5.98
- pIC50 [5]: 5.05

SMILES: C[C@H](c1ccccc1)N1CC[C@H](N(C)c2ccc(S(=O)(=O)Nc3nccs3)cc2Cl)C1 [Example 44, 3-chloro-4-(methyl((S)-1-((R)-1-phenylethyl)pyrrolidin-3-yl)amino)-N-(thiazol-2-yl)benzenesulfonamide]
- pIC50 [1]: < 5.00
- pIC50 [2]: 4.97
- pIC50 [3]: 7.05
- pIC50 [4]: 7.00
- pIC50 [5]: < 4.52

SMILES: C[C@H](c1ccccc1)N1CCC(Oc2ccc(S(=O)(=O)Nc3cscn3)cc2Cl)CC1 [Example 57, (R)-3-chloro-4-((1-(1-phenylethyl)piperidin-4-yl)oxy)-N-(thiazol-4-yl)benzenesulfonamide 2,2,2-trifluoroacetate]
- pIC50 [1]: < 5.00
- pIC50 [2]: 4.86
- pIC50 [3]: 6.57
- pIC50 [4]: 6.01
- pIC50 [5]: 5.28

SMILES: CC(C)(c1ccccc1)N1CCC(Oc2ccc(S(=O)(=O)Nc3nccs3)cc2Cl)CC1 [Example 59, 3-chloro-4-((1-(2-phenylpropan-2-yl)piperidin-4-yl)oxy)-N-(thiazol-2-yl)benzenesulfonamide 2,2,2-trifluoroacetate]
- pIC50 [1]: 5.00
- pIC50 [2]: 5.13
- pIC50 [3]: 7.04
- pIC50 [4]: 6.59
- pIC50 [5]: 5.13

SMILES: CC1(Nc2ccc(S(=O)(=O)Nc3nccs3)cc2Cl)CCN(Cc2ccccc2)C1 (stereo not shown) [Example 61, 4-((1-benzyl-3-methylpyrrolidin-3-yl)amino)-3-chloro-N-(thiazol-2-yl)benzenesulfonamide]
- pIC50 [1]: < 5.00
- pIC50 [2]: 5.20
- pIC50 [3]: 6.86
- pIC50 [4]: 6.75
- pIC50 [5]: 5.16

SMILES: CN(c1ccc(S(=O)(=O)Nc2cscn2)cc1Cl)[C@H]1CCN(C(C)(C)c2ccccc2)C1 [Example 62, (S)-3-chloro-4-(methyl(1-(2-phenylpropan-2-yl)pyrrolidin-3-yl)amino)-N-(thiazol-4-yl)benzenesulfonamide]
- pIC50 [1]: 5.18
- pIC50 [2]: 5.37
- pIC50 [3]: 6.82
- pIC50 [4]: 6.27
- pIC50 [5]: 5.34

SMILES: Cc1cc(S(=O)(=O)Nc2ccsn2)c(F)cc1N(C)[C@H]1CCN(Cc2ccccc2)C1 [Example 277, (S)-4-((1-benzylpyrrolidin-3-yl)(methyl)amino)-2-fluoro-N-(isothiazol-3-yl)-5-methylbenzenesulfonamide 2,2,2-trifluoroacetate]
- pIC50 [2]: 4.60
- pIC50 [3]: 7.57
- pIC50 [4]: 6.82
- pIC50 [5]: < 4.52

SMILES: Cc1c(OC2CCN([C@H](C)c3ccccc3)CC2)cc(F)c(S(=O)(=O)Nc2cscn2)c1F [Example 282, (R)-2,6-difluoro-3-methyl-4-((1-(1-phenylethyl)piperidin-4-yl)oxy)-N-(thiazol-4-yl)benzenesulfonamide 2,2,2-trifluoroacetate]
- pIC50 [2]: 4.76
- pIC50 [3]: 8.30
- pIC50 [4]: 8.30
- pIC50 [5]: 4.62

SMILES: C[C@H](c1ccccc1)N1CCC(Oc2cc(F)c(S(=O)(=O)Nc3cscn3)c(F)c2)CC1 [Example 291, (R)-2,6-difluoro-4-((1-(1-phenylethyl)piperidin-4-yl)oxy)-N-(thiazol-4-yl)benzenesulfonamide 2,2,2-trifluoroacetate]
- pIC50 [2]: < 4.52
- pIC50 [3]: 6.35
- pIC50 [4]: 6.24
- pIC50 [5]: < 4.52

SMILES: Cc1c(N(C)[C@H]2CCN(Cc3ccccc3)C2)cc(F)c(S(=O)(=O)Nc2ncns2)c1F [Example 295, (S)-4-((1-benzylpyrrolidin-3-yl)(methyl)amino)-2,6-difluoro-3-methyl-N-(1,2,4-thiadiazol-5-yl)benzenesulfonamide]
- pIC50 [2]: 4.77
- pIC50 [3]: 9.00
- pIC50 [4]: 8.05
- pIC50 [5]: 4.59
